Experimental data reported in patent US20070004660A1, “Synergistic Modulation of Flt3 Kinase Using Alkylquinolines and Alkylquinazolines” (priority 2005, published 2007).

target: T1, wild-type FLT3 receptor (Homo sapiens, UniProt P36888); assay: Cell-based FLT3 receptor ELISA (FLT ligand-induced phosphorylation in Baf3 FLT3 cells); settings: 100 ng/mL Flt ligand, uncertainty ±20%
T1 construct: host or cells: Baf3 (murine B cell lymphoma line), stably transfected
T1 sequence (P36888 27-993): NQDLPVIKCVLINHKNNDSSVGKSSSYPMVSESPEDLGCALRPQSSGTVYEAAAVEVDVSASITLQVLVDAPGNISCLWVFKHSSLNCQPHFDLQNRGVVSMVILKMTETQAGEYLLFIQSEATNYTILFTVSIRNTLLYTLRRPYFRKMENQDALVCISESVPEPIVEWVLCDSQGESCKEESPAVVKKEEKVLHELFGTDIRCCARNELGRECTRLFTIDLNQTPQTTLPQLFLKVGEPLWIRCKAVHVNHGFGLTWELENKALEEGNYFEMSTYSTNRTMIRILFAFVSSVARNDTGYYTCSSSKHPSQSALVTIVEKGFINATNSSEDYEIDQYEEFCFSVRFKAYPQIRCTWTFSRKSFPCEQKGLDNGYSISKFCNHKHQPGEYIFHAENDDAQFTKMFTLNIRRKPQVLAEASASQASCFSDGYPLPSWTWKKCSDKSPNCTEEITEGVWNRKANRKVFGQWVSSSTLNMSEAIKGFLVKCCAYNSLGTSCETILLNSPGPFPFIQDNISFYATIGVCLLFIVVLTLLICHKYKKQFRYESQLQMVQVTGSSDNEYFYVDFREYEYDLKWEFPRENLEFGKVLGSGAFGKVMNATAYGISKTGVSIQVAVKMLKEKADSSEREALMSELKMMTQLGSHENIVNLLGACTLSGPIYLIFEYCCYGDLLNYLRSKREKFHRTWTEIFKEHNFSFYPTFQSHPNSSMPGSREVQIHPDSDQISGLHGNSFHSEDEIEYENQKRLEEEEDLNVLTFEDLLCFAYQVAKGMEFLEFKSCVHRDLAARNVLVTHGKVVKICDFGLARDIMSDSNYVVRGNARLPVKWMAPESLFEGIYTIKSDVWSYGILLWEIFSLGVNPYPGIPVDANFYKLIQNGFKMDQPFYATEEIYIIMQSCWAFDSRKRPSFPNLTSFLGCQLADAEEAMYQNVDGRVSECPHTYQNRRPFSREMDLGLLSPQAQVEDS
Outline: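 Receptor phosphotyrosine measured by sandwich ELISA (anti-FLT3 capture, HRP anti-pTyr, luminescence) in FLT3-transfected murine Baf3 cells given 1 h compound pretreatment and 10 min 100 ng/mL FLT ligand after overnight low-serum starvation; triplicates, IC50 from nonlinear regression.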

| SMILES | IC50 [nM] |
| --- | --- |
| CS(=O)(=O)NCCCOc1ccc2c(C3CCN(C(=O)Nc4ccc(N5CCOCC5)nc4)CC3)ncnc2c1 [Example 87, 4-[7-(3-Methanesulfonylamino-propoxy)-quinazolin-4-yl]-piperidine-1-carboxylic acid (6-morpholin-4-yl-pyridin-3-yl)-amide] | 23 |
| CS(=O)(=O)NCCCOc1ccc2c(C3CCN(C(=O)Nc4ccc(OC5CCCC5)nc4)CC3)ncnc2c1 [Example 88, 4-[7-(3-Methanesulfonylamino-propoxy)-quinazolin-4-yl]-piperidine-1-carboxylic acid (6-cyclopentyloxy-pyridin-3-yl)-amide] | 30 |
| O=C1CCCN1CCCOc1ccc2c(C3CCN(C(=O)Nc4ccc(N5CCCC5)nc4)CC3)ncnc2c1 [Example 89, 4-{7-[3-(2-Oxo-pyrrolidin-1-yl)-propoxy]-quinazolin-4-yl}-piperidine-1-carboxylic acid (6-pyrrolidin-1-yl-pyridin-3-yl)-amide] | 1 |
| O=C1CCCN1CCCOc1ccc2c(C3CCN(C(=O)Nc4cnc(N5CCCC5)nc4)CC3)ncnc2c1 [Example 90, 4-{7-[3-(2-Oxo-pyrrolidin-1-yl)-propoxy]-quinazolin-4-yl}-piperidine-1-carboxylic acid (2-pyrrolidin-1-yl-pyrimidin-5-yl)-amide] | 279 |
| O=C(Nc1ccc(N2CCOCC2)nc1)N1CCC(c2ncnc3cc(OCCN4CCOC4=O)ccc23)CC1 [Example 91, 4-{7-[2-(2-Oxo-oxazolidin-3-yl)-ethoxy]-quinazolin-4-yl}-piperidine-1-carboxylic acid (6-morpholin-4-yl-pyridin-3-yl)-amide] | 6 |
| CC(C)Oc1ccc(NC(=O)N2CCC(c3ncnc4cc(OCC5CCN(C)CC5)ccc34)CC2)cc1 [Example 93, 4-[7-(1-Methyl-piperidin-4-ylmethoxy)-quinazolin-4-yl]-piperidine-1-carboxylic acid (4-isopropoxy-phenyl)-amide] | 1 |
| CN1CCC(COc2ccc3c(C4CCN(C(=O)Nc5ccc(N6CCOCC6)cc5)CC4)ncnc3c2)CC1 [Example 94, 4-[7-(1-Methyl-piperidin-4-ylmethoxy)-quinazolin-4-yl]-piperidine-1-carboxylic acid (4-morpholin-4-yl-phenyl)-amide] | 11 |
| CC(=O)N1CCN(CCOc2ccc3c(C4CCN(C(=O)Nc5ccc(N6CCOCC6)cc5)CC4)ncnc3c2)CC1 [Example 97, 4-{7-[2-(4-Acetyl-piperazin-1-yl)-ethoxy]-quinazolin-4-yl}-piperidine-1-carboxylic acid (4-morpholin-4-yl-phenyl)-amide] | 36 |

The remaining molecules from weak to strong by IC50, led by results:

| IC50 [nM] | SMILES |
| --- | --- |
| 243 | O=C(Nc1ccc(N2CCOCC2)cc1)N1CCC(c2ncnc3cc(OCCN4CCOCC4)ccc23)CC1 [Example 96, 4-[7-(2-Morpholin-4-yl-ethoxy)-quinazolin-4-yl]-piperidine-1-carboxylic acid (4-morpholin-4-yl-phenyl)-amide] |
| 25 | O=C(Nc1ccc(N2CCCC2)nc1)N1CCC(c2ncnc3cc(OCCN4CCOCC4)ccc23)CC1 [Example 95, 4-[7-(2-Morpholin-4-yl-ethoxy)-quinazolin-4-yl]-piperidine-1-carboxylic acid (6-pyrrolidin-1-yl-pyridin-3-yl)-amide] |
| 12 | O=C(Nc1ccc(N2CCCC2)nc1)N1CCC(c2ncnc3cc(OCCN4CCOC4=O)ccc23)CC1 [Example 92, 4-{7-[2-(2-Oxo-oxazolidin-3-yl)-ethoxy]-quinazolin-4-yl}-piperidine-1-carboxylic acid (6-pyrrolidin-1-yl-pyridin-3-yl)-amide] |
| 9 | CS(=O)(=O)NCCCOc1ccc2c(C3CCN(C(=O)Nc4ccc(N5CCCC5)nc4)CC3)ncnc2c1 [Example 86, 4-[7-(3-Methanesulfonylamino-propoxy)-quinazolin-4-yl]-piperidine-1-carboxylic acid (6-pyrrolidin-1-yl-pyridin-3-yl)-amide] |
